Experimental data published in patent publication US20080221134A1, “8-ALKYNYLXANTHINES AND DERIVATIVES” (priority 2006, published 2008).

Key:
[1] = system: Reserpine induced catalepsy; experiment: Acute Reserpine induced catalepsy test; format: in vivo, rat; conditions: i.p. in DMSO, 0.1-10 mg/kg; listed as 8-(phenylethynyl)-DPMX
Protocol: (§1) Animals were administered with Reserpine or CGS-21680 according to methods known to the skilled person in the art. These models and procedures are e.g. described by Ferré S. et al., Neurosci. Let., 1991, 130, 162; Ferré S. et al., Neuroscience, 1992, 51, 501; Kafka S. H. et al., Eur. J. Pharmacol., 1996, 295, 147; Rimondini R. et al., Neuropsychopharmacology, 1997, 17, 82 and are herein incorporated by reference. In the acute CGS-21680 induced catalepsy model (CGS model) the test compounds (TC, compounds according to the present invention) and CGS-21680 (i.p. 2 mg/kg) were administered 60 minutes before the start of the catalepsy bar measurement and behavioural testing described below (see also FIG. 1). In the acute Reserpine induced catalepsy model (RES model Resperine (subcutaneously, 3 mg/kg) was injected 24 h prior to the test compound application. Catalepsy bar measurement took place 60 minutes after test compound application (see FIG. 1). Test compounds were administered i.p. in DMSO in following doses (mg/kg): 0.1, 0.3, 1, 3, 10.
(§2) Dimethylsulfoxide (DMSO) was used as vehicle for the test compounds and Reserpine. Reserpine was dissolved in DMSO in a concentration of 3 mg/ml. A 10% (w/v) Cyclodextrin solution was used as vehicle for CGS-21680. CGS 21680 was dissolved in 10% (w/v) Cyclodextrine in a concentration of 2 mg/ml.
Apomorphine was used as a reference compound in the Reserpine induced catalepsy model. Apomorphine injection solution was diluted with purified water to a concentration of 0.3 mg/ml. The solution was administered subcutaneously (s.c.) in a volume of 1 ml/kg (0.3 mg/kg) 20 minutes before the begin of testing after Reserpine pre-treatment (25 hours prior to testing).
The catalepsy bar after Reserpine administration was measured (CAT) as follows: The rat was placed with its forepaws on a log of wood. […] The animal was tested for three trials and the time for each trial was noted. The following parameters were calculated: maximum time to descend (s) and median time to descend (s). […]
(§3) All statistical tests were performed two tailed with a value of p<0.05 considered as significant.
(§4) To assess the effects of CGS-21680 and Reserpine pre-treatment compared to vehicle treated controls statistical comparisons between the test groups were performed using a U test statistic.
To assess the effects of test compounds on CGS-21680 and Reserpine pre-treated animals correlation analyses including animals from test groups and the respective test compound-treated groups were performed.
Additionally, parametric and non-parametric comparisons for the median catalepsy measure were performed to assess the reliability of the method. In case of parametric testing a GLM analyses was performed including animals from a control group (only vehicle treated animals) and the respective test compound-treated groups with dose as a categorical factor. In case of a significant result, a Dunnett's post hoc test was performed between the according test compound groups and a control group as reference group. In case of non-parametric testing a Kruskal-Wallis H-test was performed including animals from a control group and the respective test compound groups. In case of a significant result single U-test comparisons were performed between a control group and the groups treated with different doses of the test compound.

[2] = system: CGS-21680 induced catalepsy; experiment: Acute CGS-21680 induced catalepsy test; format: in vivo, rat; conditions: i.p. in DMSO, 0.1-10 mg/kg; listed as 8-(phenylethynyl)-DPMX
Protocol: as §1, §2
Caffeine was used as a reference compound in the CGS-21680 induced catalepsy model. A caffeine solution was prepared with water for injection purposes to a concentration of 30 mg/ml. The solution was administered intraperitoneally in a volume of 1 ml/kg (30 mg/kg) 30 minutes before the beginning of testing and after CGS-21680 pre-treatment (1 hour prior to testing).
The catalepsy bar after CGS-21680 administration was measured (CAT) as follows: The rat was placed with its forepaws on a log of wood. […] If the animal descended faster than 1 second, the trial was regarded as invalid. If more than 20 trials were rated as invalid, the values of all uncompleted trials were noted as 0. The animal was tested until five trials had been completed and the time for each trial was noted. Only the values of the last three trials were used for the analysis. The following parameters were calculated: maximum time to descend (s) and median time to descend (s).
Behavioural observation (BO) included the measurement of the body tone, inclined plane and grip strength.
The rat is taken in the hand of the observer and the animal's body tone is rated as normal, soft or hard. The rating is performed immediately after taking the animal from its home cage before performance of catalepsy testing. The following parameters were calculated: mean occurrence of hard body tone and mean occurrence of soft body tone.
The rat is horizontally placed to an inclined plane for a maximum time of 30 seconds. Time to reach bottom or top is measured. […] The test is performed after catalepsy testing. Time to leave the inclined plane(s) was measured.
The rat is put on a grip and the observer pulls the animal back on his tail. The strength (fore paws and hind paws) by which it holds on the grid is scored as grasping and pulling, grasping without pulling or no grasping. The test is performed after the inclined plane test. The following parameters were calculated: mean score of fore paw grip strength and mean score of hind paw grip strength.
as §3, §4
To assess the effects of test compounds on CGS-21680 and Reserpine pre-treated animals correlation analyses including animals from test groups and the respective test compound-treated groups were performed. […]

[3] = Water solubility (statement); format: physicochemical; conditions: listed as 8-(phenylethynyl)-DMPX
human A2A receptor = human A2A receptor (Homo sapiens, UniProt P29274); experiment: Human A2A receptor IC50/Imax (unpublished results); format: binding
Chain of human A2A receptor (P29274 whole entry): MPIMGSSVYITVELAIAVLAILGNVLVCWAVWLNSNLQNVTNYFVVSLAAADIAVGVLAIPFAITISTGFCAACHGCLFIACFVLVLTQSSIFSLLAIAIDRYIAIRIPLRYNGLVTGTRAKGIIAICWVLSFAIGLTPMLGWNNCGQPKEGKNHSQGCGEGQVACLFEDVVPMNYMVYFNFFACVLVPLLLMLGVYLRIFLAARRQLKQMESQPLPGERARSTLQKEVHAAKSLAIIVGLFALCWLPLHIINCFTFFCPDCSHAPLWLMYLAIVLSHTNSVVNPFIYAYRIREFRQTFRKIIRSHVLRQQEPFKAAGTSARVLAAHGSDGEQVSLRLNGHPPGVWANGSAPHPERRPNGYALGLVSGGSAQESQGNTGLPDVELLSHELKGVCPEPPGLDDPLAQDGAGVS

water solubility (in words) [3]: low solubility
IC50 (human A2A receptor): > 300 nM
Imax at the human receptor (human A2A receptor): about 37%
SMILES: C#CCn1c(=O)c2c(nc(C#Cc3ccccc3)n2C)n(C)c1=O
effect on catalepsy time in acute Reserpine induced catalepsy model [1]: inactive
effect on catalepsy time in acute CGS-21680 induced catalepsy model [2]: inactive
